Measurements as given in PubChem BioAssay (NCI).
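Each compound was tested at five concentrations against cells in 96-well plates for 48 hours. GI50 = concentration required for 50% inhibition of growth. TGI: total growth inhibition.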

Columns and labels:
Assay in all cases: NCI tumour cell line growth inhibition, 48 h
NCI-H226 lung = system: NCI-H226 lung
NCI-H23 lung = system: NCI-H23 lung
HCT-15 colon = system: HCT-15 colon
MCF7 breast = system: MCF7 breast
SK-MEL-5 melanoma = system: SK-MEL-5 melanoma
RPMI-8226 leukemia = system: RPMI-8226 leukemia
OVCAR-5 ovarian = system: OVCAR-5 ovarian
COLO 205 colon = system: COLO 205 colon
MALME-3M melanoma = system: MALME-3M melanoma
HT29 colon = system: HT29 colon
A549 NSCLC = system: A549 NSCLC
SNB-75 CNS = system: SNB-75 CNS
NCI/ADR-RES ovarian = system: NCI/ADR-RES ovarian
SF-268 CNS = system: SF-268 CNS
OVCAR-4 ovarian = system: OVCAR-4 ovarian
SK-MEL-28 melanoma = system: SK-MEL-28 melanoma
MOLT-4 leukemia = system: MOLT-4 leukemia
DLD-1 colon = system: DLD-1 colon
EKVX NSCLC = system: EKVX NSCLC
SN12C renal = system: SN12C renal
CCRF-CEM leukemia = system: CCRF-CEM leukemia
OVCAR-8 ovarian = system: OVCAR-8 ovarian
UACC-257 melanoma = system: UACC-257 melanoma
HOP-18 NSCLC = system: HOP-18 NSCLC
HCT-116 colon = system: HCT-116 colon
HOP-92 NSCLC = system: HOP-92 NSCLC
P388 leukemia = system: P388 leukemia
XF 498 CNS = system: XF 498 CNS
P388/ADR leukemia = system: P388/ADR leukemia
SW-620 colon = system: SW-620 colon
A498 renal = system: A498 renal
IGROV1 ovarian = system: IGROV1 ovarian
DMS 273 small cell lung = system: DMS 273 small cell lung
SK-OV-3 ovarian = system: SK-OV-3 ovarian
U251 CNS = system: U251 CNS
NCI-H460 lung = system: NCI-H460 lung
K-562 leukemia = system: K-562 leukemia
LOX IMVI melanoma = system: LOX IMVI melanoma
UO-31 renal = system: UO-31 renal
SF-539 CNS = system: SF-539 CNS
HOP-62 NSCLC = system: HOP-62 NSCLC
HCC-2998 colon = system: HCC-2998 colon
CAKI-1 renal = system: CAKI-1 renal
SNB-78 CNS = system: SNB-78 CNS
RXF 393 renal = system: RXF 393 renal
OVCAR-3 ovarian = system: OVCAR-3 ovarian
HL-60(TB) leukemia = system: HL-60(TB) leukemia
KM20L2 colon = system: KM20L2 colon
KM12 colon = system: KM12 colon
SF-295 CNS = system: SF-295 CNS
SNB-19 CNS = system: SNB-19 CNS
DMS 114 small cell lung = system: DMS 114 small cell lung
SN12K1 renal = system: SN12K1 renal
SK-MEL-2 melanoma = system: SK-MEL-2 melanoma
UACC-62 melanoma = system: UACC-62 melanoma
M19-MEL melanoma = system: M19-MEL melanoma
NCI-H522 lung = system: NCI-H522 lung

`CSCSCC(CO)NC(=O)/C=C\c1c(C)[nH]c(=O)[nH]c1=O` (centres undefined) gave a GI50 (NCI-H226 lung) of 49.8 µM, a TGI (NCI-H226 lung) of 309 µM and a TGI (NCI-H23 lung) of 120 µM. For the same compound, the TGI (HCT-15 colon) was 214 µM, the TGI (MCF7 breast) was 29.2 µM and the TGI (SK-MEL-5 melanoma) was 105 µM. The TGI (RPMI-8226 leukemia) was 239 µM, the TGI (OVCAR-5 ovarian) was 277 µM and the TGI (COLO 205 colon) was 78.9 µM. It also gave a TGI (MALME-3M melanoma) of 76.6 µM, a TGI (HT29 colon) of 270 µM and a TGI (A549 NSCLC) of 375 µM. It also gave a TGI (SNB-75 CNS) of 118 µM, a TGI (NCI/ADR-RES ovarian) of 296 µM and a TGI (SF-268 CNS) of 112 µM. The TGI (OVCAR-4 ovarian) was 13.4 µM, the TGI (SK-MEL-28 melanoma) was 219 µM and the TGI (MOLT-4 leukemia) was 59.1 µM. It also gave a TGI (DLD-1 colon) of 160 µM, a TGI (EKVX NSCLC) of 153 µM and a TGI (SN12C renal) of 102 µM. For the same compound, the TGI (CCRF-CEM leukemia) was 37.4 µM, the TGI (OVCAR-8 ovarian) was 89.9 µM and the TGI (UACC-257 melanoma) was 208 µM. It also gave a TGI (HOP-18 NSCLC) of 267 µM, a TGI (HCT-116 colon) of 96.4 µM and a TGI (HOP-92 NSCLC) of 10.1 µM. For the same compound, the TGI (P388 leukemia) was 164 µM, the TGI (XF 498 CNS) was 9.99 µM and the TGI (P388/ADR leukemia) was 332 µM. For the same compound, the TGI (SW-620 colon) was 207 µM, the TGI (A498 renal) was 229 µM and the TGI (IGROV1 ovarian) was 320 µM. It also gave a TGI (DMS 273 small cell lung) of 267 µM, a TGI (SK-OV-3 ovarian) of 74 µM and a TGI (U251 CNS) of 201 µM. For the same compound, the TGI (NCI-H460 lung) was 109 µM, the TGI (K-562 leukemia) was 111 µM and the TGI (LOX IMVI melanoma) was 107 µM. The TGI (UO-31 renal) was 126 µM, the TGI (SF-539 CNS) was 192 µM and the TGI (HOP-62 NSCLC) was 246 µM. It also gave a TGI (HCC-2998 colon) of 52.9 µM, a GI50 (CAKI-1 renal) of 2.04 µM and a TGI (CAKI-1 renal) of 33.3 µM. The GI50 (SNB-78 CNS) was 30.9 µM, the TGI (SNB-78 CNS) was 260 µM and the TGI (RXF 393 renal) was 249 µM. For the same compound, the GI50 (OVCAR-3 ovarian) was 1.41 µM, the TGI (OVCAR-3 ovarian) was 14 µM and the TGI (HL-60(TB) leukemia) was 46.6 µM. It also gave a TGI (KM20L2 colon) of 129 µM, a GI50 (KM12 colon) of 10.8 µM and a TGI (KM12 colon) of 156 µM. The GI50 (SF-295 CNS) was 62.1 µM, the TGI (SF-295 CNS) was 209 µM and the TGI (SNB-19 CNS) was 197 µM. It also gave a TGI (DMS 114 small cell lung) of 66.5 µM, a TGI (SN12K1 renal) of 84.9 µM and a TGI (SK-MEL-2 melanoma) of 136 µM. For the same compound, the TGI (UACC-62 melanoma) was 197 µM, the TGI (M19-MEL melanoma) was 111 µM and the TGI (NCI-H522 lung) was 8.48 µM.
`N/C(=N\N=C/c1c(O)cc(O)cc1O)NO` gave a TGI (NCI-H226 lung) of over 100 µM, a TGI (NCI-H23 lung) of over 100 µM and a TGI (HCT-15 colon) of over 100 µM. It also gave a TGI (MCF7 breast) of over 100 µM, a TGI (SK-MEL-5 melanoma) of over 100 µM and a TGI (RPMI-8226 leukemia) of over 100 µM. The TGI (OVCAR-5 ovarian) was over 100 µM, the TGI (COLO 205 colon) was over 100 µM and the TGI (MALME-3M melanoma) was over 100 µM. It also gave a TGI (HT29 colon) of over 100 µM, a TGI (A549 NSCLC) of over 100 µM and a TGI (SNB-75 CNS) of 98.8 µM. It also gave a TGI (NCI/ADR-RES ovarian) of over 100 µM, a TGI (SF-268 CNS) of over 100 µM and a TGI (OVCAR-4 ovarian) of over 100 µM. The TGI (SK-MEL-28 melanoma) was over 100 µM, the TGI (MOLT-4 leukemia) was over 100 µM and the TGI (DLD-1 colon) was over 100 µM. The TGI (EKVX NSCLC) was over 94.5 µM, the TGI (SN12C renal) was over 100 µM and the TGI (CCRF-CEM leukemia) was over 92.6 µM. For the same compound, the TGI (OVCAR-8 ovarian) was over 100 µM, the TGI (UACC-257 melanoma) was over 100 µM and the TGI (HOP-18 NSCLC) was over 100 µM. For the same compound, the TGI (HCT-116 colon) was over 100 µM, the TGI (HOP-92 NSCLC) was over 100 µM and the TGI (P388 leukemia) was over 100 µM. For the same compound, the TGI (P388/ADR leukemia) was over 100 µM, the TGI (SW-620 colon) was over 100 µM and the TGI (A498 renal) was over 100 µM. For the same compound, the TGI (IGROV1 ovarian) was over 100 µM, the TGI (DMS 273 small cell lung) was over 31.6 µM and the TGI (SK-OV-3 ovarian) was over 100 µM. The TGI (U251 CNS) was over 100 µM, the TGI (NCI-H460 lung) was over 100 µM and the TGI (K-562 leukemia) was over 100 µM. The TGI (LOX IMVI melanoma) was over 100 µM, the TGI (UO-31 renal) was over 100 µM and the TGI (SF-539 CNS) was over 100 µM. The TGI (HOP-62 NSCLC) was over 100 µM, the TGI (HCC-2998 colon) was over 100 µM and the TGI (CAKI-1 renal) was over 100 µM. The TGI (SNB-78 CNS) was over 100 µM, the TGI (RXF 393 renal) was over 100 µM and the TGI (OVCAR-3 ovarian) was over 100 µM. For the same compound, the TGI (HL-60(TB) leukemia) was over 76.9 µM, the TGI (KM20L2 colon) was over 100 µM and the TGI (KM12 colon) was over 100 µM. The TGI (SF-295 CNS) was over 100 µM, the TGI (SNB-19 CNS) was over 100 µM and the TGI (DMS 114 small cell lung) was over 100 µM. It also gave a TGI (SN12K1 renal) of over 100 µM, a TGI (SK-MEL-2 melanoma) of over 100 µM and a TGI (UACC-62 melanoma) of over 100 µM. The TGI (M19-MEL melanoma) was over 100 µM and the TGI (NCI-H522 lung) was over 100 µM.
